{"source": "paper PMC11271967", "about": "“An inhibitory mechanism of AasS, an exogenous fatty acid scavenger: Implications for re-sensitization of FAS II antimicrobials” (PLOS Pathogens, 2024)", "key": {"[1]": {"system": "AasS (D411A)", "test": "Isothermal titration calorimetry (ITC), AasS (D411A) mutant", "type": "binding, Vibrio harveyi", "procedure": "Fig 7 Parallels in binding of AasS to the C10-AMP adenylate intermediate and the C10-AMS inhibitor. Structural visualization for AasS binding an intermediate C10-AMP adenylate (A) and its inhibitor C10-AMS (B). […] C. […] Both AasS enzymatic reaction and conformationally-sensitive gel separation were conducted as described in Fig 2D and 2F. D. In vivo evidence that the three single mutants of AasS (D411A, R426A, and K432A) lose the ability to bypass the physiological requirement of biotin for the bioC isogenic mutant of E. coli on the non-permissive condition. The bacterial viability on M9 defined agar medium was determined as performed in Fig 4E. […] The ITC assays were carried out as we conducted in Fig 3B.\nThe assays of Isothermal titration calorimetry (ITC) were conducted to address the stoichiometry of AasS binding to its C10-AMS inhibitor and C10-AMP intermediate. Since both malic acid and pimelic acid are not substrates for AasS, the two dicarboxylic acids were assumed as negative controls in our ITC analysis. Using a micro-calorimeter (MicroCal PEAQ-ITC) as recently described for E-C7 with little change, totally 18 titrations (2 μl each at an internal of 2.5 min) proceeded in the cell at room temperature. […] Next, the stoichiometry (N) and dissociation constant (Kd) were calculated. […]"}, "[2]": {"target": "T1, AasS (Vibrio harveyi, UniProt Q00IB3)", "T1 sequence (Q00IB3 entry or part of it)": "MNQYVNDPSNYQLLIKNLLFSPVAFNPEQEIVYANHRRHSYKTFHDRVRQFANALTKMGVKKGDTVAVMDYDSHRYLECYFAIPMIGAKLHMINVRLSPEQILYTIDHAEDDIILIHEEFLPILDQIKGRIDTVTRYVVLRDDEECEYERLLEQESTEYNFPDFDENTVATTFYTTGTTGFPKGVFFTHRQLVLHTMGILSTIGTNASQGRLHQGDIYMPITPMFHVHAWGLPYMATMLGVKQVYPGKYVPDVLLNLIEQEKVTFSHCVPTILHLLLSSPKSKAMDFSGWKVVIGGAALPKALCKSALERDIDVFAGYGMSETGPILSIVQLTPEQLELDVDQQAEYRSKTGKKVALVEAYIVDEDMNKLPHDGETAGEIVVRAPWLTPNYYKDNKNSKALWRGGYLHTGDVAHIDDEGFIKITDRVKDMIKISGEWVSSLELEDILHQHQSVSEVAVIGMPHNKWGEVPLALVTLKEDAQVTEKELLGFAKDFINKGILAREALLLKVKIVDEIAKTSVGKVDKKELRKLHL", "test": "Isothermal titration calorimetry (ITC), wild-type AasS", "type": "binding", "conditions": "for binding to AasS in ITC: negative controls", "procedure": "The assays of Isothermal titration calorimetry (ITC) were conducted to address the stoichiometry of AasS binding to its C10-AMS inhibitor and C10-AMP intermediate. Since both malic acid and pimelic acid are not substrates for AasS, the two dicarboxylic acids were assumed as negative controls in our ITC analysis. Using a micro-calorimeter (MicroCal PEAQ-ITC) as recently described for E-C7 with little change, totally 18 titrations (2 μl each at an internal of 2.5 min) proceeded in the cell at room temperature. Prior to the titration, AasS protein (~40 μM) was saturated with its ATP cofactor (120 μM) in the cell, and C10-AMS inhibitor (or C10) was kept at 600 μM in the syringe. The titration buffer was composed of 150 mM NaCl, 25 mM Tris-HCl (pH8.0), 2 mM DTT, and 3 mM MgCl2. One set of site model by the MicroCal PEAQ-ITC software enabled plotting the titration curves. Next, the stoichiometry (N) and dissociation constant (Kd) were calculated. It was given as an average ± standard deviation (SD) from three independent trials."}, "[3]": {"system": "AasS", "test": "In vitro enzymatic activity of AasS (acyl-ACP formation, conformationally-sensitive urea PAGE, ImageJ semi-quantitation)", "type": "biochemical, Vibrio harveyi", "conditions": "for C10-ACP conversion from C10 substrate, Average: AasS 3 nM, fig. 2E; for activity as substrate of AasS in vitro (ligation with holo-ACP): urea gel"}, "[4]": {"target": "T1, AasS", "test": "Microscale thermophoresis (MST), wild-type AasS", "type": "binding", "conditions": "AasS 40 nM; C10/ATP mixture 0.15 nM to 5.0 μM", "procedure": "(§1) To validate poor binding of AasS(D411A) to C10 fatty acyl adenylate observed in our ITC assays, the relatively-more sensitive approach of microscale thermophoresis (MST) was additionally applied here as Jerabek-Willemsen et al. described with minor alteration. Using the Protein Labeling Kit (Protein Labeling Kit RED-NHS 2nd Generation, Nano Temper Technology), both the wild-type AasS and its D411A mutant were fluorescently labelled in the MST buffer (150 mM NaCl, 25 mM Tris-HCl, 3 mM MgCl2, 0.05% Tween-20, pH 8.0). The ligand C10-AMP used in MST assays was prepared by an equal mixture of C10 and ATP. In general, an NT.115 Monolith instrument (Nano Temper Technology, Germany) was integrated, of which the routine parameters included a RED/LED (20%) excitation power along with 60% laser power for excitation. Then, the protein samples were siphoned into MST Premium Coated capillaries for the determination of binding affinity at room temperature. The final concentrations of different AasS samples were 40 nM for WT, and 180 nM for D411A, respectively. The mixture of C10/ATP was diluted in a gradient (from 0.15 nM to 5.0 μM). Three independent MST experiments were conducted here. The dissociation constants (Kd) were calculated using the software MO. Affinity Analysis v2.3. Of note, this was largely dependent on the KD model with a 1:1 stoichiometry per binding partner."}, "[5]": {"system": "AasS(D411A)", "test": "Microscale thermophoresis (MST), AasS(D411A) mutant", "type": "binding, Vibrio harveyi", "conditions": "D411A 180 nM; C10/ATP mixture 0.15 nM to 5.0 μM", "procedure": "as §1"}, "[6]": {"target": "T1, AasS", "design": "method as in PMID 39794554", "conditions": "cited from earlier work"}, "[7]": {"system": "MenE, an o-succinylbenzoyl-CoA synthetase", "conditions": "cited from earlier work"}, "[8]": {"system": "AasS-expressing E. coli ΔbioC strain", "test": "AasS-based bypass of biotin synthesis, bacterial viability on M9 agar", "type": "cell-based, Escherichia coli", "conditions": "biotin-deficient M9 medium", "description": "Fig 4 Integrated evidence for the inhibition of AasS action with E-C7 fatty acid by C10-AMS compound. A. Schematic diagram of AasS-catalyzed ligation of E-C7 with holo-ACP recipient to produce E-C7-ACP. […] A representative photograph of three independent trials was given. C. Relatively-quantitative analysis (for the inhibitory efficacy of C10-AMS on AasS-catalyzed E-C7-ACP production. As for AasS reaction (panel B), unlike the three components that are at constant levels, namely (i) AasS (31.25 nM), (ii) E-C7 (600 μM), and (iii) ACP (3 μg), C10-AMS inhibitor was supplemented at varied ratio in relative to the AasS enzyme (ranging from 0:1, 25:1, 50:1, 100:1, 200:1, 300:1, 400:1, to 500:1). The ImageJ software was applied to measure the relative percentage (%) of E-C7 fatty acylation in each AasS reaction. The resultant graphs were plotted from three independent experiments, in which the output was expressed as means ± SD (standard deviations). D. Schematic diagram for C10-AMS inhibition of AasS-based bypass of biotin requirement by the E. coli ΔbioC biotin auxotroph on the non-permissive condition. […] Log-phase cultures in a series of 10-fold dilution (shown in panel on right hand), were spotted on the x-gal-containing M9 agar plates supplemented with C10-AMS inhibitor at varied levels (0, 50, 100, to 500 μM). The addition of x-gal substrate enabled the occurrence of blue colonies for better photographing, and viable colonies were highlighted with yellow arrows.\nGiven that AasS ligates E-C7 fatty acid with holo-ACP, giving E-C7-ACP, an alternative precursor for bacterial biotin synthesis, plasmid-borne aasS expression in ΔbioC biotin auxotroph strain is assumed to overcome the requirement of the primary BioC step [58, 83]. Apart from its WT, three single mutants of AasS (D411A, R426A, and K432A) were examined in vivo, of which the compromised activity is presumably proportional to the varied viability of the ΔbioC reporter strains on the non-permissive M9 growth condition. To test its inhibitory effect, the C10-AMS inhibitor in a series of dilution was supplemented. […]"}}, "note": "“Also recorded” adds a separate entry of the source. Read-outs that look alike come from different tables or passages of the source.", "data": [{"smiles": "CCCCCCCCCC(=O)O", "note": "[C10, decanoic acid]", "values": [{"measurement": "binding to AasS (D411A) in ITC (words)", "setting": "[1]", "value": "fails to effectively bind"}, {"measurement": "binding to AasS (D411A) in ITC (words)", "setting": "[1]; listed as decanoic acid", "value": "does not"}, {"measurement": "Kd", "setting": "[2]", "value": "54.4 ± 5.1", "unit": "nM"}, {"measurement": "C10-ACP conversion from C10 substrate, Average", "setting": "[3]; C10 6 μM", "value": 46.1519}, {"measurement": "C10-ACP conversion from C10 substrate, Average", "setting": "[3]; C10 12 μM", "value": 68.3859}, {"measurement": "C10-ACP conversion from C10 substrate, Average", "setting": "[3]; C10 24 μM", "value": 90.5892}, {"measurement": "C10-ACP conversion from C10 substrate, Average", "setting": "[3]; C10 60 μM", "value": 89.8102}, {"measurement": "C10-ACP conversion from C10 substrate, Average", "setting": "[3]; C10 120 μM", "value": 91.2632}, {"measurement": "C10-ACP conversion from C10 substrate, Average", "setting": "[3]; C10 180 μM", "value": 91.9374}, {"measurement": "C10-ACP conversion from C10 substrate, Average", "setting": "[3]; C10 240 μM", "value": 91.9685}]}, {"smiles": "CCCCCCCCCC(=O)OP(=O)(O)OCC1OC(n2cnc3c(N)ncnc32)C(O)C1O", "note": "(centres unmarked) [C10-AMP, decanoyl-adenylate]", "values": [{"measurement": "binding by wild-type AasS in MST", "setting": "[4]", "value": "efficient binding"}, {"measurement": "stoichiometry (n)", "setting": "[2]; AasS ~40 μM saturated with ATP 120 μM", "value": "0.77 ± 0.04"}, {"measurement": "Kd", "setting": "[2]; AasS ~40 μM saturated with ATP 120 μM, ligand 600 μM in syringe, room temperature, read-out: dissociation constant (Kd)", "value": "64.4 ± 5.2", "unit": "nM"}, {"measurement": "binding by AasS(D411A) in MST", "setting": "[5]", "value": "lose its ability of binding"}]}, {"smiles": "CCOC(=O)CCCCCC(=O)O", "note": "[E-C7, mono-ethyl pimelic acid]", "values": [{"measurement": "binding affinity to AasS", "setting": "[6]", "value": "mild affinity"}]}, {"smiles": "Nc1ncnc2c1ncn2[C@@H]1O[C@H](COS(=O)(=O)NC(=O)CCC(=O)c2ccccc2C(=O)O)[C@@H](O)[C@H]1O", "note": "[OSB-AMS]", "values": [{"measurement": "mode of inhibition of MenE", "setting": "[7]", "value": "mixed-type inhibitor"}]}, {"smiles": "O=C(O)CC(O)C(=O)O", "note": "(centres unmarked) [malic acid]", "values": [{"measurement": "binding to AasS in ITC", "setting": "[2]", "value": "none of the two dicarboxylic acids; also recorded: without an ability of binding"}, {"measurement": "support of AasS-based biotin bypass as sole carbon source", "setting": "[8]", "value": "loss of function in supporting bacterial viability; also recorded: cannot bypass biotin requirement"}, {"measurement": "activity as substrate of AasS in vitro (ligation with holo-ACP)", "setting": "[3]", "value": "inactive"}]}, {"smiles": "O=C(O)CCCCCC(=O)O", "note": "[pimelic acid]", "values": [{"measurement": "binding to AasS in ITC", "setting": "[2]", "value": "no binding"}, {"measurement": "binding to AasS in ITC", "setting": "[2]; listed as pimelate", "value": "none of the two dicarboxylic acids"}, {"measurement": "support of AasS-based biotin bypass as sole carbon source", "setting": "[8]", "value": "loss of function in supporting bacterial viability; also recorded: Failure of AasS-based biotin bypass"}, {"measurement": "activity as substrate of AasS in vitro (ligation with holo-ACP)", "setting": "[3]", "value": "inactive"}]}]}
